In patent publication US7728012B2, “Carboxamide compounds and their use as calpain inhibitors” (Abbott GmbH & Co. KG, priority 2006, dated 2010):

Columns and labels:
Format in all cases: biochemical
[1] = biological target: T1, recombinant human cathepsin S (Homo sapiens, UniProt P25774); experiment: Cathepsin S kinetic fluorescence enzyme inhibition assay; conditions: selectivity ratio versus calpain I
T1 construct: purchased Calbiochem 219343; host or cells: E. coli
In short: (§1)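 cat B 0.25 nM + Z-Phe-Arg-AMC 100 μM; cat L 1 nM + Z-Phe-Arg-AMC 2 μM; cat S 0.5 nM (E. coli-expressed) + Z-Val-Val-Arg-AMC 20 μM. 50 mM MES pH 6.0, 2.5 mM L-Cys, RT. Ex 390/em 460, kinetic; Ki app = Cheng-Prusoff from IC50, mean of 2–4 curves.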

[2] = biological target: T2, calpain-I isolated from human erythrocytes (Homo sapiens, UniProt P07384); experiment: Calpain I kinetic fluorescence enzyme inhibition assay; conditions: apparent Ki from IC50 by Cheng-Prussoff; average of 2 to 4 dose-effect plots
T2 construct: calpain-I—isolated from human erythrocytes; purchased Calbiochem 208713; host or cells: human erythrocytes (tissue isolate)
T2 sequence (P07384 1-714): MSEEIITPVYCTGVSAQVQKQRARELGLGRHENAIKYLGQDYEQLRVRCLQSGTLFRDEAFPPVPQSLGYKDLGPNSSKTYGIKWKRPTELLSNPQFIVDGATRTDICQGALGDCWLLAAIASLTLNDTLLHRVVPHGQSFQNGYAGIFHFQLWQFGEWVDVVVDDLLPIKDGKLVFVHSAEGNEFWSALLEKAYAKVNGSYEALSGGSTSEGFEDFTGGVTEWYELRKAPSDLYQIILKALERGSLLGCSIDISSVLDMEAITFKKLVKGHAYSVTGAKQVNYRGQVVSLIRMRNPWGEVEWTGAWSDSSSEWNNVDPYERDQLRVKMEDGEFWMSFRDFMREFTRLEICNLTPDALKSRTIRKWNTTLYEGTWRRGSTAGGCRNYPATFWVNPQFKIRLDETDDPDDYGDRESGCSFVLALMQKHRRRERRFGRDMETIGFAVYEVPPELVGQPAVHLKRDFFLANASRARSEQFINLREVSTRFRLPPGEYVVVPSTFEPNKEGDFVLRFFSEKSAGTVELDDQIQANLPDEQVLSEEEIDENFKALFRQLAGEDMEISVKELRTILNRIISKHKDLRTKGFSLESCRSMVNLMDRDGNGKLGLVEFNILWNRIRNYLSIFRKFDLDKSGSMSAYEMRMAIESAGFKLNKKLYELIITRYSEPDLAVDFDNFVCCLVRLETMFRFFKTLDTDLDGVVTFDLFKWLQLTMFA
T2 sequence (P04632 1-268 partner): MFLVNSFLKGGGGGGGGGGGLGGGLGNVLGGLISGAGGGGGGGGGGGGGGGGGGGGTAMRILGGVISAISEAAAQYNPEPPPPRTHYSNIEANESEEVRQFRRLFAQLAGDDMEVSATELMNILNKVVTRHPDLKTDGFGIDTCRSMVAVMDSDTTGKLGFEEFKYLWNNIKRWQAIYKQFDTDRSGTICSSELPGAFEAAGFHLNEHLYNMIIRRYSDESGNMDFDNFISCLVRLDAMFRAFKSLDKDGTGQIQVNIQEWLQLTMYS

[3] = biological target: T3, cathepsin B isolated from human liver (Homo sapiens, UniProt P07858); experiment: Cathepsin B kinetic fluorescence enzyme inhibition assay; conditions: selectivity ratio versus calpain I
T3 construct: cathepsin B—isolated from human liver; purchased Calbiochem 219362; host or cells: human liver (tissue isolate)
In short: as §1

[4] = biological target: T4, cathepsin K activated from recombinant human procathepsin K (Homo sapiens, UniProt P43235); experiment: Cathepsin K kinetic fluorescence enzyme inhibition assay; conditions: selectivity ratio versus calpain I
T4 construct: purchased Calbiochem 342001; host or cells: E. coli
T4 sequence (P43235 115-329): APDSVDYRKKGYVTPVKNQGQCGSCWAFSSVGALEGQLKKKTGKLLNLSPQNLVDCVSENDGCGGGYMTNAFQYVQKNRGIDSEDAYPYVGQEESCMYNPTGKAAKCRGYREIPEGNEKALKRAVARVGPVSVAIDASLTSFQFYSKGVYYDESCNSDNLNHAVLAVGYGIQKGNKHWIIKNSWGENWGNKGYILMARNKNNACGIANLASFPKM

[5] = biological target: T5, cathepsin L isolated from human liver (Homo sapiens, UniProt P07711); experiment: Cathepsin L kinetic fluorescence enzyme inhibition assay; conditions: selectivity ratio versus calpain I
T5 construct: cathepsin L—isolated from human liver; purchased Calbiochem 219402; host or cells: human liver (tissue isolate)
T5 sequence (P07711 114-333): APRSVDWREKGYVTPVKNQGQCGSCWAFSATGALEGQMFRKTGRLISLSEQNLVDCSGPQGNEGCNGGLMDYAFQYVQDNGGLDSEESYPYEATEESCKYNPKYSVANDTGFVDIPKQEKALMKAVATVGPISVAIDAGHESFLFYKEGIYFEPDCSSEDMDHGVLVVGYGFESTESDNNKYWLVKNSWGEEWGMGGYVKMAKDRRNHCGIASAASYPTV
In short: as §1

T1 sequence (P25774 115-331): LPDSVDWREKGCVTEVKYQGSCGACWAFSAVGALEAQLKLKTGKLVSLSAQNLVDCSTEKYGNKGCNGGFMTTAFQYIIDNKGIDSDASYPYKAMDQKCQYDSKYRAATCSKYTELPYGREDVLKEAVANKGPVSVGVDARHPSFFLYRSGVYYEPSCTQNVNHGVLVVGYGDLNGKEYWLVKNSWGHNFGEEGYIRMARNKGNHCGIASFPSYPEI

| SMILES | Sel cat. S (Ki(cathepsin S)/Ki(calpain) ratio) [1] | Ki [2] | Sel cat. B (Ki(cathepsin B)/Ki(calpain) ratio) [3] | Sel cat. K (Ki(cathepsin K)/Ki(calpain) ratio) [4] | Sel cat. L (Ki(cathepsin L)/Ki(calpain) ratio) [5] |
| --- | --- | --- | --- | --- | --- |
| NC(=O)C(=O)C(Cc1ccccc1)NC(=O)c1cccnc1-n1cc2c(n1)-c1cc(Cl)ccc1OC2 (stereo not shown) [Example 140, N-[3-Amino-2,3-dioxo-1-(phenylmethyl)propyl]-2-(8-chlorochromeno[4,3-c]pyrazol-2(4H)-yl)pyridine-3-carboxamide] | ++ (Ki(cathepsin S)/Ki(calpain) ratio of ≧100) | ≤ 40 nM | + (10≦Ki(cathepsin B)/Ki(calpain)<30) | ++ (Ki(cathepsin K)/Ki(calpain) ratio of ≧30) | ++ (Ki(cathepsin L)/Ki(calpain) ratio of ≧50) |
| COc1ccc2c(c1)OCc1cn(-c3ncccc3C(=O)NC(Cc3ccccc3)C(=O)C(N)=O)nc1-2 (stereo not shown) [Example 142, N-[3-Amino-2,3-dioxo-1-(phenylmethyl)propyl]-2-[7-(methyloxy)chromeno[4,3-c]pyrazol-2(4H)-yl]pyridine-3-carboxamide] | ++ (Ki(cathepsin S)/Ki(calpain) ratio of ≧100) | ≤ 40 nM | + (10≦Ki(cathepsin B)/Ki(calpain)<30) | + (10≦Ki(cathepsin K)/Ki(calpain)<30) | ++ (Ki(cathepsin L)/Ki(calpain) ratio of ≧50) |
| Cc1c(Cl)ccc2c1-c1nn(-c3ncccc3C(=O)NC(Cc3ccccc3)C(=O)C(N)=O)cc1CO2 (stereo not shown) [Example 143, N-[3-Amino-2,3-dioxo-1-(phenylmethyl)propyl]-2-(8-chloro-9-methylchromeno[4,3-c]pyrazol-2(4H)-yl)pyridine-3-carboxamide] | ++ (Ki(cathepsin S)/Ki(calpain) ratio of ≧100) | 40 to 100 nM | ++ (Ki(cathepsin B)/Ki(calpain) ratio of ≧30) | ++ (Ki(cathepsin K)/Ki(calpain) ratio of ≧30) | ++ (Ki(cathepsin L)/Ki(calpain) ratio of ≧50) |
| NC(=O)C(=O)C(Cc1ccc(F)cc1)NC(=O)c1cccnc1-n1ccc(-c2ccccc2OC(F)(F)F)n1 (stereo not shown) [Example 152, N-{3-Amino-1-[(4-fluorophenyl)methyl]-2,3-dioxopropyl}-2-(3-{2-[(trifluoromethyl)oxy]phenyl}-1H-pyrazol-1-yl)pyridine-3-carboxamide] | ++ (Ki(cathepsin S)/Ki(calpain) ratio of ≧100) | ≤ 40 nM | ++ (Ki(cathepsin B)/Ki(calpain) ratio of ≧30) | ++ (Ki(cathepsin K)/Ki(calpain) ratio of ≧30) | ++ (Ki(cathepsin L)/Ki(calpain) ratio of ≧50) |
| COc1ccc(CC(NC(=O)c2cccnc2-n2ccc(-c3cccc(Cl)c3Cl)n2)C(=O)C(N)=O)cc1 (stereo not shown) [Example 153, N-(3-Aamino-1-{[4-(methyloxy)phenyl]methyl}-2,3-dioxopropyl)-2-[3-(2,3-dichlorophenyl)-1H-pyrazol-1-yl]pyridine-3-carboxamide] | ++ (Ki(cathepsin S)/Ki(calpain) ratio of ≧100) | ≤ 40 nM | ++ (Ki(cathepsin B)/Ki(calpain) ratio of ≧30) | ++ (Ki(cathepsin K)/Ki(calpain) ratio of ≧30) | ++ (Ki(cathepsin L)/Ki(calpain) ratio of ≧50) |
| NC(=O)C(=O)C(Cc1ccccc1)NC(=O)c1cccnc1-n1ccc(-c2cccc(C(F)(F)F)c2Cl)n1 (stereo not shown) [Example 155, N-[3-Amino-2,3-dioxo-1-(phenylmethyl)propyl]-2-{3-[2-chloro-3-(trifluoromethyl)phenyl]-1H-pyrazol-1-yl}pyridine-3-carboxamide] | ++ (Ki(cathepsin S)/Ki(calpain) ratio of ≧100) | 40 to 100 nM | ++ (Ki(cathepsin B)/Ki(calpain) ratio of ≧30) | ++ (Ki(cathepsin K)/Ki(calpain) ratio of ≧30) | ++ (Ki(cathepsin L)/Ki(calpain) ratio of ≧50) |
| COc1ccc(CC(NC(=O)c2cccnc2-n2ccc(-c3cccc(F)c3Cl)n2)C(=O)C(N)=O)cc1 (stereo not shown) [Example 157, N-(3-Amino-1-{[4-(methyloxy)phenyl]methyl}-2,3-dioxopropyl)-2-[3-(2-chloro-3-fluorophenyl)-1H-pyrazol-1-yl]pyridine-3-carboxamide] | ++ (Ki(cathepsin S)/Ki(calpain) ratio of ≧100) | ≤ 40 nM | ++ (Ki(cathepsin B)/Ki(calpain) ratio of ≧30) | ++ (Ki(cathepsin K)/Ki(calpain) ratio of ≧30) | ++ (Ki(cathepsin L)/Ki(calpain) ratio of ≧50) |
| CS(=O)(=O)Nc1cnc(-n2ccc(-c3ccccc3)n2)c(C(=O)NC(Cc2ccccc2)C(=O)C(N)=O)c1 (stereo not shown) [Example 158, N-[3-Amino-2,3-dioxo-1-(phenylmethyl)propyl]-5-[(methylsulfonyl)amino]-2-(3-phenyl-1H-pyrazol-1-yl)pyridine-3-carboxamide] | ++ (Ki(cathepsin S)/Ki(calpain) ratio of ≧100) | 40 to 100 nM | ++ (Ki(cathepsin B)/Ki(calpain) ratio of ≧30) | ++ (Ki(cathepsin K)/Ki(calpain) ratio of ≧30) | ++ (Ki(cathepsin L)/Ki(calpain) ratio of ≧50) |
| NC(=O)C(=O)C(Cc1ccccc1)NC(=O)c1cccnc1-n1ccc(-c2cccc3cccnc23)n1 (stereo not shown) [Example 160, N-[3-amino-2,3-dioxo-1-(phenylmethyl)propyl]-2-(3-quinolin-8-yl-1H-pyrazol-1-yl)pyridine-3-carboxamide] | ++ (Ki(cathepsin S)/Ki(calpain) ratio of ≧100) | 40 to 100 nM | ++ (Ki(cathepsin B)/Ki(calpain) ratio of ≧30) | ++ (Ki(cathepsin K)/Ki(calpain) ratio of ≧30) | ++ (Ki(cathepsin L)/Ki(calpain) ratio of ≧50) |
| NC(=O)C(=O)C(Cc1cccc(F)c1)NC(=O)c1cccnc1-n1ccc(-c2ccccc2OC(F)(F)F)n1 (stereo not shown) [Example 162, N-{3-Amino-1-[(3-fluorophenyl)methyl]-2,3-dioxopropyl}-2-(3-{2-[(trifluoromethyl)oxy]phenyl}-1H-pyrazol-1-yl)pyridine-3-carboxamide] | ++ (Ki(cathepsin S)/Ki(calpain) ratio of ≧100) | 40 to 100 nM | ++ (Ki(cathepsin B)/Ki(calpain) ratio of ≧30) | ++ (Ki(cathepsin K)/Ki(calpain) ratio of ≧30) | ++ (Ki(cathepsin L)/Ki(calpain) ratio of ≧50) |
| NC(=O)C(=O)C(Cc1ccccc1)NC(=O)c1cccnc1-n1ccc(-c2cc(C(F)(F)F)ccc2CN2CCOCC2)n1 (stereo not shown) [Example 163, N-[3-Amino-2,3-dioxo-1-(phenylmethyl)propyl]-2-{3-[2-(morpholin-4-ylmethyl)-5-(trifluoromethyl)phenyl]-1H-pyrazol-1-yl}pyridine-3-carboxamide] | ++ (Ki(cathepsin S)/Ki(calpain) ratio of ≧100) | 40 to 100 nM | + (10≦Ki(cathepsin B)/Ki(calpain)<30) | + (10≦Ki(cathepsin K)/Ki(calpain)<30) | + (30≦Ki(cathepsin L)/Ki(calpain)<50) |
